# Measured values as given in article PMC5442318, “Hundreds of dual-stage antimalarial molecules discovered by a functional gametocyte screen” (Nature Communications, 2017).
# Where two headings read alike, the source gives them in different places.
# Columns and labels:
# [1] = tested on: P. falciparum asexual blood stages; settings: TCAMS asexual blood stage data; ref 1 (Gamo, F. J. et al., Nature 465, 305-310, 2010); read-out: Pf Asexual blood stages XC50; cited from earlier work
# [2] = tested on: P. falciparum stage V female gametocytes; assay: P. falciparum female gametocyte activation assay (Pf FGAA), 24 h or 48 h preincubation, Pfs25 expression readout; assay type: cell-based, Plasmodium falciparum NF54; settings: P. falciparum female gametocytes, mean, read-out: Gametocytes mean Pf FGAA IC50
# Experimental: P. falciparum NF54 (originally isolated from an imported malaria case in the Netherlands in the 1980s; BEI Resources, cat. no. MRA-1000) asexual-stage culture was performed as described by Trager and Jensen[37]. Cultures synchronized at the ring stage were used to start gametocyte cultures (day 0) at 1% parasitaemia and 4% haematocrit in 200 ml final volume using culture bottles (Nalgene 3110-42, Thermo Scientific). Complete culture medium (RPMI 1640 supplemented with 25 mM HEPES, 50 μg ml^−1 hypoxanthine, 2 g l^−1 NaHCO3 and 10% pooled human male type A+ serum) was totally replaced daily for 14 days without fresh erythrocyte addition. Human serum was obtained from Interstate Blood Bank, A^+ serotype; no aspirin 2 h before drawing and no antimalarials 2 weeks before drawing. To ensure a stable temperature at 37 °C, which is crucial for gametocyte production and maturation, pre-warmed medium and a slide warmer (XH-2001, Premiere) were used. Under these conditions, parasitaemia reaches a peak of asexual stages on days 4–5, and the first gametocytes are differentiated in culture on day 6. Sexual-stage development was monitored microscopically by Giemsa-stained thin blood smears at day 7 (mainly asexual stages and stages I to III gametocytes) and day 14 (stages IV and V gametocytes).
# Cultures showing mainly stage V gametocytes were purified by differential sedimentation as previously reported. The gametocyte concentration was adjusted to plate 8,000 gametocytes per well (100 μl per well) in 384-well poly-D-lysine coated plates (781946, Greiner Bio-One) containing the compounds to test. […] Female gametocyte activation was then triggered by temperature drop and addition of xanthurenic acid (D120804, Sigma) as previously described. To detect female gametes, monoclonal anti-Pfs25 antibody[38] 4B7 (BEI Resources (formerly MR4), cat. no. MRA-315) conjugated to the Cy3 fluorochrome (GE Healthcare) was added to ookinete medium (RPMI 1640 supplemented with 25 mM HEPES, 50 μg ml^−1 hypoxanthine, 2 g l^−1 NaHCO3, 100 μM xanthurenic acid and 20% human serum) at a final concentration of 0.5 μg ml^−1. Activated cultures were then kept at 26 °C for 24 h protected from light, and image acquisition was performed in the Opera High-Content Screening System (PerkinElmer). Using × 10 air objective, five images per well were taken using 532 nm excitation. Images were analysed with a Columbus image data storage and analysis system (PerkinElmer) based on a script specifically designed for this assay that considers size, roundness and intensity of fluorescence of the female activated gametocytes.
# Compounds were dissolved in 100% DMSO and dispensed in the 384-well plates using an Echo-CRS liquid handler. Compounds were tested in 2–3 independent experiments. […] Based on that, Z′ factor was calculated for each plate and only those ones with values higher than 0.4 were considered acceptable for data analysis.
# Assay performance statistics, such as signal to background ratio, Z′ and robust 3 s.d. activity cut-off were calculated using templates in ActivityBase XE (IDBS, Guilford, Surrey, UK). Hit population analysis and visualization were conducted using Spotfire DecisionSite (Spotfire, Inc., Somerville, MA, USA). The pIC50 (−log IC50) values were obtained using the ActivityBase XE nonlinear regression function in the full curve analysis bundle.
# [3] = tested on: P. falciparum stages IV–V gametocytes; assay: Gametocytocidal ATP-depletion assay (gametocyte ATP bioluminescence); assay type: cell-based, Plasmodium falciparum
# Experimental: In parallel, the set of confirmed hits from the Pf FGAA screen was cross-compared in the gametocyte ATP-depletion assay, at 2 μM single concentration (Supplementary Data 1). This assay monitors ATP levels as surrogate of gametocyte viability.
# ‘Viability' of mature gametocytes was determined using the gametocyte ATP bioluminiscence assay. Briefly, stages IV–V gametocyte cultures were double-purified by differential sedimentation followed by magnetic isolation. Then, parasites (50 μl per well containing 12,500 gametocytes) were added to compound pre-dispensed 384-well plates (781091, Greiner Bio-One) and incubated at 37 °C for 48 h (3% O2, 5% CO2 and 92% N2). BacTiter-Glo kit (G8231, Promega) was used to determine the ATP levels of ‘live' parasites according to the manufacturer's instructions. After reagent addition (50 μl per well), luminescence of the plates was measured using a microplate reader (HTS counter Victor, Wallac).
# HepG2 cells = assay: HepG2 cytotoxicity assay; assay type: cell-based; settings: HepG2 cells; mean
# Experimental: After incubation, plates and CellTiter-Glo Reagent (G7571, Promega) were equilibrated at room temperature for 30 min before proceeding to develop the luminescent signal. Using a Multidrop combi dispenser, 25 μl per well of the signal developer were added to the plates and after 10 min at room temperature for stabilization, plates were read on the ViewLux system (Perkin Elmer).
IC50 [2] [nM],SMILES,IC50 [1] [nM],Gametocytes mean ATP inhibition at 2µM [3] [%],HepG2 cells mean TOX50 (HepG2 cells) [µM],IC50 ([2]; Plasmodium falciparum) [nM],"inhibition at 2 µM ([3]; Plasmodium falciparum, mean) [%]"
880,CC(C)C1=CC(=NOS(=O)(=O)c2ccccc2)C=C(C(C)C)C1=O [TCMDC-124172],710,65.50,21.70,,
1000,CCN1CCN(c2ccc(Nc3c4ccccc4nc4ccccc34)cc2)CC1 [TCMDC-124255],720,12.43,4.57,,
130,C=CCN(C(=O)c1ccc(Cl)c([N+](=O)[O-])c1)c1nc(-c2ccccc2)cs1 [TCMDC-124436],400,100.64,>100,,
100,CC(C)(C)Nc1cc(C2CC2)nc(-c2ccccn2)n1 [TCMDC-124453],680,81.87,>100,,
1250,Cn1c(Sc2ncnc3sccc23)nc2ccccc21 [TCMDC-124514],190,17.03,>100,,
770,Cc1sc2ncnc(Sc3nnc(N)s3)c2c1C [TCMDC-124542],400,30.31,36.31,,
960,COc1ccc(OC)c(-c2cccc(-c3cccc(NC(=O)c4ccc([N+](=O)[O-])o4)c3)n2)c1 [TCMDC-124799],370,25.78,3.63,,
160,O=C(c1ccc([N+](=O)[O-])o1)N1CCC(Cc2ccc(C(F)(F)F)cc2)CC1 [TCMDC-124805],170,93.11,27.05,,
7050,Cc1sc2nc(CN3CCCC3)nc(-n3c(NCCO)nc4ccccc43)c2c1C [TCMDC-124811],1240,42.91,25.73,,
4550,CCOc1ccc2nc3cc(NC(=O)c4ccco4)ccc3c(N)c2c1 [TCMDC-125004],800,91.77,25.15,,
1110,Cc1ccccc1OCC(O)CNC1CCC(NCC(O)COc2ccccc2C)CC1 (stereo not drawn) [TCMDC-125142],1190,39.31,4.07,,
210,CC(Nc1cc(-c2ccccn2)nc(-c2ccccn2)n1)c1ccccc1 (stereo not drawn) [TCMDC-125420],450,86.62,6.18,,
320,c1ccc(CNc2cc(-c3ccccn3)nc(-c3ccccn3)n2)cc1 [TCMDC-125421],300,76.15,13.04,,
28,Cc1c(Cl)cccc1N=C(S)NN=Cc1ccccn1 [TCMDC-125487],600,74.71,>100,,
27.1,Fc1ccc(NC(S)=NN=Cc2ccccn2)cc1 [TCMDC-125521],770,85.73,>100,,
80,SC(=Nc1ccc(Cl)c(Cl)c1)NN=Cc1ccccn1 [TCMDC-125522],770,64.79,3.47,,
,CC[C@H]1CN2CCc3cc(OC)c(OC)cc3[C@@H]2C[C@@H]1C[C@H]1NCCc2cc(OC)c(OC)cc21 [TCMDC-125531],210,,9.77,2730,56
140,c1ccc2sc(Sc3ncnc4sccc34)nc2c1 [TCMDC-125539],730,69.68,>100,,
54.3,Fc1ccc2nc(Nc3nc(-c4ccccn4)cs3)sc2c1 [TCMDC-125540],560,71.05,58.31,,
1140,Oc1c(C(Nc2ccccn2)c2ccc(Cl)cc2Cl)ccc2cccnc12 (stereo not drawn) [TCMDC-125559],890,84.30,12.74,,
1430,O=C(Nc1cc(C(F)(F)F)cc(C(F)(F)F)c1)Nc1ccc(Cl)c(Cl)c1 [TCMDC-125592],240,-6.96,3.07,,
1140,CCCC(N)C(=O)NC1CCN(c2c(F)c(N)c3c(=O)c(C(=O)O)cn4c3c2Oc2ccccc2-4)C1.Cl (stereo not drawn) [TCMDC-125701],360,0.82,1.61,,
330,ON=C(c1nc2ccccc2[nH]1)c1nc2ccccc2[nH]1 [TCMDC-125758],1090,89.28,4.96,,
160,c1ccc(-c2nc(NC3CCCCC3)cc(C3CC3)n2)nc1 [TCMDC-125825],730,85.03,48.99,,
120,CC(C)(C)c1cc(NC2CC2)nc(-c2ccccn2)n1 [TCMDC-125826],720,84.45,>100,,
670,COc1ccc2nc3cc(Cl)ccc3c(N)c2c1.Cl [TCMDC-125835],170,101.44,1.57,,
1260,COc1ccc(CCNCCCCCCNCCc2ccc(-c3ccccc3)cc2)cc1OC.Cl [TCMDC-131267],960,51.20,6.90,,
10900,Br.Oc1ccc(CCNCCCCCCNCCc2ccc(-c3ccccc3)cc2)cc1O [TCMDC-131268],600,64.17,13.18,,

SMILES,IC50 [2] [nM],IC50 [1] [nM],Gametocytes mean ATP inhibition at 2µM [3] [%],HepG2 cells mean TOX50 (HepG2 cells) [µM],IC50 ([2]; Plasmodium falciparum) [nM],"inhibition at 2 µM ([3]; Plasmodium falciparum, mean) [%]"
Cl.c1ccc2c(NCCCCCCCCCNc3c4ccccc4nc4ccccc34)c3ccccc3nc2c1 [TCMDC-124286],1800,300,51.90,4.90,,
CCC1CN2CCc3cc(OC)c(OC)cc3C2CC1CC1NCCc2cc(OC)c(OC)cc21 (stereo not drawn) [TCMDC-125849],1820,150,60.00,2.24,,
